Among the data in patent US9067928B2 (Genentech, Inc., priority 2008, dated 2015) are Ki and IC50 values, retold here.

The target in one assay is T1, Bcl-2 (Homo sapiens, UniProt P10415).
T1 construct: made in house
As to the kind of experiment: TR-FRET binding assay, competition with F-Bak for Bcl-2 binding site. Particulars: GST-Bcl-2, F-Bak probe. On the procedure:
Test compounds were serially diluted in DMSO starting at 50 μM (2× starting concentration; 10% DMSO) and 10 μL transferred into a 384-well plate.
The samples are then mixed on a shaker for 1 minute then incubated for an additional 2 hours at room temperature. For each assay plate, a probe/antibody and protein/antibody/probe mixture were included as a negative and a positive control, respectively. Fluorescence was measured on the Envision (Perkin Elmer) using a 340/35 nm excitation filter and 520/525 (F-Bak) and 495/510 nm (Tb-labeled anti-his antibody) emission filters. Dissociation constants (Ki) were determined using Wang's equation (see, Wang, Z. X. An exact mathematical expression for describing competitive binding of two different ligands to a protein molecule. FEBS Lett. 1995 360:111-114). The TR-FRET assay can be performed in the presence of varying concentrations of human serum (HS) or fetal bovine serum (FBS).
For comparison, the measurement of the competition of compounds of the invention for other Bcl-2 family protein binding sites (e.g., Bcl-2, Mcl-1) using the TR-FRET binding assay was accomplish by substituting GST-Bcl-xL in the TR-FRET assay with other GST-labeled protein, e.g. GST-Bcl-2, GST-Mcl-1 prepared in-house.
For comparison, data (Ki in micromolar) from the measurement of the competition by certain compounds of the invention (i.e., compounds 1, 28, 38, 63, 71, 75, 80, 81, 92 and 94 in Table 1) with F-Bak for the Bcl-2 binding site using the TR-FRET binding assay are, 1.2, 0.15, 0.01, 0.018, 0.50, 0.272, 0.167, 0.66, 0.23 and 0.000003 respectively.

The target of a further assay is T2, Bcl-xL (Homo sapiens, UniProt Q07817).
T2 construct: made in house
T2 sequence (Q07817 whole entry, species assumed): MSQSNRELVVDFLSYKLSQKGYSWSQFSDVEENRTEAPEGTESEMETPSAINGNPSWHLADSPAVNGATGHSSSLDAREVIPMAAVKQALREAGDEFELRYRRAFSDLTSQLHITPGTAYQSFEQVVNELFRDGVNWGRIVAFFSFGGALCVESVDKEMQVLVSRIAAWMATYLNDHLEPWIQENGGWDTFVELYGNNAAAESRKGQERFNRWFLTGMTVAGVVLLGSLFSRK
As to the kind of experiment: Alpha Screen Bcl-xL binding assay, competition with Bim26-mer. The conditions noted are these: values listed in the order of Table 1; read-out: Alphascreen results (IC50). (In general: Bead proximity is the source of the signal in Alpha formats.)

T1 sequence (P10415 whole entry, species assumed): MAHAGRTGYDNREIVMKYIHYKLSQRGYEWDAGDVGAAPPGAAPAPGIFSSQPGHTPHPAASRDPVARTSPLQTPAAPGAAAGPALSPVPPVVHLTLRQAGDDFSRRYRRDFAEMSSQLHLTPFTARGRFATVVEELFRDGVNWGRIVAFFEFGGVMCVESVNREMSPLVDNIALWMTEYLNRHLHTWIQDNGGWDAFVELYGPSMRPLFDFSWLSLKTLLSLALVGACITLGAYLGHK

As a reminder, the Ki is a measure of affinity in units of concentration, obtained from inhibition or displacement. Read a high Ki as weaker binding. Usually IC50 stands for the midpoint of a concentration-inhibition curve. The compound `O=C(O)c1nc(-c2ccc3c(c2)N(C(=O)Nc2nc4ccccc4s2)CCC3)sc1-c1ccc(-c2ccccc2)cc1` [Example 92, 2-(1-(benzo[d]thiazol-2-ylcarbamoyl)-1,2,3,4-tetrahydroquinolin-7-yl)-5-(biphenyl-4-yl)thiazole-4-carboxylic acid] returned an inhibitory constant (Ki) at Bcl-2 of 230 nM. Moreover, the IC50 at Bcl-xL was 2 nM.
